Assay results published in patent US7335663B2, “Heteroaryl compounds which inhibit leukocyte adhesion mediated by α4 integrins” (Elan Pharmaceuticals, Inc., priority 2002, dated 2008).

Columns and labels:
[1] = Cassette dosing and serum analysis for determination of oral bioavailability; format: in vivo, Sprague Dawley (SD) rats; settings: rats, oral cassette of 6 compounds, total dose 10 mg/kg, plasma samples at 4, 8 and 12 h
Experimental: The oral bioavailability was screened by dosing rats with a cassette, i.e. mixture of 6 compounds per dosing solution. The cassette included 5 test articles and a standard compound, for a total dose of 10 mg/kg. Each compound/test article was converted to the sodium salt with equimolar 1 N NaOH and dissolved in water at 2 mg/mL. The cassette was prepared by mixing equal volumes of each of the six solutions. The cassette dosing solution was mixed well and then the pH was adjusted to 7.5-9. The dosing solution was prepared the day before the study and stirred overnight at room temperature.
Male Sprague Dawley (SD) rats from Charles River Laboratories, 6-8 weeks old were used in this screen. Rats were quarantined for at least one day and had continuous access to food and water. On the night before the administration of the cassette, the rats were fasted for approximately 16 h.
Four SD rats were assigned in each cassette. A single dose of the dosing solution was administered orally to each rat. The dosing volume (5 mL/kg) and time were recorded and rats were fed 2 h after dosing.
Blood samples were collected via cardiac puncture at the following time points: 4 h, 8 h and 12 h. Immediately prior to blood collection, rats were anesthetized with CO2 gas within 10-20 seconds. After the 12-hour samples were collected, the rats were euthanized via CO2 asphyxiation followed by cervical dislocation.
Blood samples were kept in heparinized microtainer tubes under sub-ambient temperature (4° C.) before they were processed. Blood samples were centrifuged (10000 rpm for 5 minutes) and plasma samples were removed and stored in a −20° C. freezer until analyzed for drug levels. Drug levels in the plasma were analyzed using the following protocol for direct plasma precipitation.
The in vivo plasma samples were prepared in a 1.5 mL 96-well plate, by adding, in order, 100 μL of the test plasma, 150 μL of methanol, followed by vortexing for 10-20 seconds. 150 μL of 0.05 ng/μL of an Internal Standard in acetonitrile were added and vortexed for 30 seconds.
The standard curve samples were prepared in a 1.5 mL 96-well plate, by adding, in order, 100 μL of control mouse plasma, followed by 150 μL of methanol and vortexing for 10-20 seconds. 150 μL of 0.05 ng/μL of an Internal Standard in acetonitrile were added and vortexed for 30 seconds. The samples were spiked with 0-200 ng (10 concentrations) of the compound of interest in 50% methanol to obtain a standard curve range of 0.5 ng/mL-2,000 ng/mL. Again, the sample was vortexed for 30 seconds.
The samples were then spun for 20-30 minutes at 3000 rpm in an Eppendorf microfuge before 80-90% of supernatant was transferred into a clean 96-well plate. The organic solvent was then evaporated until the samples were dry (under N2 at 40° C./30-60 min (ZymarkTurbovap)).
The residue was then dissolved in 200-600 L mobile phase (50% CH3OH/0.1% TFA). LC/MS/MS was then run using a PE-Sciex API-3000 triple quadurpole mass spectrometer (SN0749707), Perkin-Elmer, Series200auto-sampler, and shimadzu 10A pump. Acquisition was done with PE-Sciex Analyst (v1.1) and data analysis and quantification were accomplished using PE-Sciex Analyst (v1.1). A 5-50 μL sample volume was injected onto a reverse phase ThermoHypersil DASH-18 column (Keystone 2.0×20 mm, 5 μm, PN: 8823025-701) using a mobile phase of 25% CH3OH, 0.1% TFA-100% CH3OH, 0.1% TFA. The run time was about 8 minutes at a flow rate of about 300 μL/minutes.
The Area Under the Curve (AUC) was calculated using the linear trapezoidal rule from t=0 to the last sampling time tx (see Handbook of Basic Pharmacokinetics, Wolfgang A. Ritschel and Gregory L. Kearns, 5th ed, 1999). AUC^0−+tx=S((Cn+Cn+1)/2))·(tn+1−tn)[(μg/mL)h]
In the case of the cassette dosing paradigm, samples at 4, 8 and 12 h post extravascular dosing, the AUC was calculated from t=0 to t=12 h.

α4β1 Integrin = target: T1, α4β1 Integrin (Homo sapiens, UniProt P05556+P13612); assay: α4β1 Integrin Adhesion Assay: Jurkat cell adhesion to human plasma fibronectin; format: cell-based; settings: Jurkat cells
T1 construct: endogenous in cells; host or cells: Jurkat cells
T1 sequence (P13612 34-1032): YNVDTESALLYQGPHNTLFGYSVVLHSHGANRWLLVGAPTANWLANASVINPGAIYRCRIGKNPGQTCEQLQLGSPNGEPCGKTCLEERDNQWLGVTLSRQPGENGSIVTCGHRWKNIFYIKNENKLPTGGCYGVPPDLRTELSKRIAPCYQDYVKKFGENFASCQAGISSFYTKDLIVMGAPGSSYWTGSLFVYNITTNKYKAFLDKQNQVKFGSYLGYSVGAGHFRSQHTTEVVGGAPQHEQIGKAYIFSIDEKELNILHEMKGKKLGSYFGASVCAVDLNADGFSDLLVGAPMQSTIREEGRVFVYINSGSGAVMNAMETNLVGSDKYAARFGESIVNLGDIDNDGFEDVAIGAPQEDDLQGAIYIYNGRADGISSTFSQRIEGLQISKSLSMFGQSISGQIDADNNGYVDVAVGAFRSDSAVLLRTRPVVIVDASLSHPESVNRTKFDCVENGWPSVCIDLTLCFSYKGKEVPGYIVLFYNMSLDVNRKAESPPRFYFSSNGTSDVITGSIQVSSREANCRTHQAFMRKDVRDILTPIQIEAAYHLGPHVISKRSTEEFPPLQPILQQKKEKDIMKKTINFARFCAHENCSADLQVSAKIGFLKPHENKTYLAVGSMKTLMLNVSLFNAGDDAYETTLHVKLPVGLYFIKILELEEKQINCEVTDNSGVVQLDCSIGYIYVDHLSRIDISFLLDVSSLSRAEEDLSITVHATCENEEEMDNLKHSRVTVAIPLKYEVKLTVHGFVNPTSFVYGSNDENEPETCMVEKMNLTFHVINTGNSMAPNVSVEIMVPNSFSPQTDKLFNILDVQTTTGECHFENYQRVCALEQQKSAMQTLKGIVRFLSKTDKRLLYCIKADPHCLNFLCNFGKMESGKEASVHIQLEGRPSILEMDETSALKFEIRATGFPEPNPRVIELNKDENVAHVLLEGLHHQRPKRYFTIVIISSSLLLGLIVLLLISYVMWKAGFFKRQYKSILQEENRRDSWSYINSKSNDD
T1 sequence (P05556 21-798): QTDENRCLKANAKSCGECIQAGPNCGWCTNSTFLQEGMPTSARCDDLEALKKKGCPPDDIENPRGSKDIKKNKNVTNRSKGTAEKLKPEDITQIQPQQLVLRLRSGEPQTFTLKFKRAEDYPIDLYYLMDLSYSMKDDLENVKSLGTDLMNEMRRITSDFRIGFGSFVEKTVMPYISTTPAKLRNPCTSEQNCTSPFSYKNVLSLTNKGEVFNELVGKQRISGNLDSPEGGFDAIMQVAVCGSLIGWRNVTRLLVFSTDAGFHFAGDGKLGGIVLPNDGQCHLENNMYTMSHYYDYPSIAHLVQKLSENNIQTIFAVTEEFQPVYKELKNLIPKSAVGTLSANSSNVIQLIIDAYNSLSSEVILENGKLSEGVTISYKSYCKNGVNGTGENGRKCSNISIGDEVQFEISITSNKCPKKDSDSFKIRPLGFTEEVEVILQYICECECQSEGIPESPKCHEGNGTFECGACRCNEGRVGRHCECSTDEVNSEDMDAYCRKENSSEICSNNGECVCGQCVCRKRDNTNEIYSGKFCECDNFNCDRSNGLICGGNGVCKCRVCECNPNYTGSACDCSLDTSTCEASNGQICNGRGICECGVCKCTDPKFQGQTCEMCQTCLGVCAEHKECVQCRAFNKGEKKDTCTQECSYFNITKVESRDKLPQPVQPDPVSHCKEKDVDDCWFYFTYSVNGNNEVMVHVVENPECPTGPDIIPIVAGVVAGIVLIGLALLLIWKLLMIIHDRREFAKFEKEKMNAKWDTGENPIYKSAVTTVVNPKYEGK
Experimental: 96 well plates (Costar 3590 EIA plates) were coated with human fibronectin (Gibco/BRL, cat #33016-023) at a concentration of 10 μg/mL overnight at 4° C. The plates were then blocked with a solution of bovine serum albumin (BSA; 0.3%) in saline. Jurkat™ cells (maintained in log phase growth) were labeled with Calcein AM according to the manufacturer's instructions, and suspended at a concentration of 2×10^6 cells/mL in Hepes/Saline/BSA. The cells were then exposed to test and control compounds for 30 minutes at room temperature before transfer to individual wells of the fibronectin coated plate. Adhesion was allowed to occur for 35 minutes at 37° C. The wells were then washed by gentle aspiration and pipetting with fresh saline. Fluorescence associated with the remaining adherent cells was quantified using a fluorescence plate reader at EX 485/EM 530.
Cell cultures were prepared by first splitting the stationary phase Jurkat™ cells at 1:10 on day one, and 1:2 on day two to perform assay on day 3. The cells split 1:10 on day one were split 1:4 on day 3 for a day 4 assay.
The assay plates were prepared by first making a working solution of Gibco/BRL Human Fibronectin (cat # 33016-023) in PBS++, at 10 μg/mL.
A Costar 3590 EIA plate was then coated with 50 μL/well for 2 hours at room temperature (thought it can also be left overnight at 4° C). Finally the plate was asperated and blocked with Hepes/Saline Buffer, 100 μL/well, for 1 hour at RT followed by washing three times with 150 μL of PBS++.
Compound dilutions were accomplished by preparing 1:3 serial dilutions of compounds as follows. For each plate (4 compounds/plate) 600 μL were added to 4 Bio-Rad Titertubes in a Titertube rack. Enough compound was added to each appropriate tube to give a 2× concentration using methods well known in the art. Using Falcon Flexiplates, 100 μL of Hepes/Saline buffer or human serum were added to rows B through G. A multi-channel pipetter set to 180 μL was used to with four tips spaced evenly the pipetter. Each set of four tubes was mixed 5 times and 180 μL, of 2× compound was transferred to the first column of each compound dilution in Row B, leaving Row A empty. 180 μL were added to the other wells in Row A. Serial dilutions were performed down the plate by transferring 50 μL to the next dilution and mixing 5 times, changing tips each time after mixing. Dilutions were stopped at Row F. Row G had no compound present.
A 20 μg/mL solution in Hepes/Saline buffer or human serum, of 21/6 antibody was the positive control and was set aside in a reagent trough to add to cell suspension plate.
The cell staining was accomplished by first harvesting the log-phase Jurkat™ cells by centrifugation in 50 mL tubes (1100 rpm for 5 minutes). The cells were resuspended in 50 mL PBS++, spun, and resuspend in 20 mL PBS++. The cells were stained by adding 20 μL of Calcein AM for 30 minutes R.T. The volume was brought to 50 mL with Hepes/Saline buffer and the cells were counted, spun, and resuspend to 2×10^6 cells/mL in Hepes/Saline buffer or human serum.
The compounds were incubated using the following procedure. In a new flexiplate, 65 μL of stained cells were added to Rows B through H. Then 65 μL of 2× compounds were added to the appropriate rows following the plate setup and mixed 3×. 65 μL of 2×-21/6 antibody were added to Row H and mixed 3×. Finally the plate was incubated at room temperature for 30 minutes.
Fibronectin adhesion was measured using a fluorescent plate reader at EX 485/EM 530 after the following work up procedure. After incubation, the cells were mixed 3× and 100 μL were transferred to the Fibronectin coated plates and incubated at 37° C. for about 35 minutes. Each plate was washed, row by row, by gently pipetting 100 μL of R.T. PBS++ down the sides of the wells and turning the plate 90 degrees to aspirate. This procedure was repeated for a total of 3 washes. Each well was filled with 100 μL after washing by pipetting down the side of the well. […]

Substance | AUC (average AUC 0-12 h) [1] | IC50, Cell Adhesion to Human Plasma Fibronectin (With human serum) (α4β1 Integrin) | IC50, Cell Adhesion to Human Plasma Fibronectin (Without the human serum) (α4β1 Integrin)
2-{2-diethylamino-5-[(2,3-difluorobenzenesulfonyl)ethylamino]pyrimidin-4-ylamino}-3-(4-dimethylcarbamoyloxyphenyl)propionic acid [Example 26] | 0.3392 (μg/mL)h | 0.01848 µg/mL | 0.001 µg/mL
2-{2-diethylamino-5-[(2,4-difluorobenzenesulfonyl)ethylamino]pyrimidin-4-ylamino}-3-(4-dimethylcarbamoyloxyphenyl)propionic acid [Example 18] | 0.2578 (μg/mL)h | 0.025 µg/mL | 0.002 µg/mL
2-{2-diethylamino-5-[(2,4-difluorobenzenesulfonyl)methylamino]pyrimidin-4-ylamino}-3-(4-dimethylcarbamoyloxyphenyl)propionic acid [Example 17] | 1.0075 (μg/mL)h | 0.024 µg/mL | 0.001 µg/mL
2-{2-diethylamino-5-[(2,5-difluorobenzenesulfonyl)methylamino]pyrimidin-4-ylamino}-3-(4-dimethylcarbamoyloxyphenyl)propionic acid [Example 25] | 0.4559 (μg/mL)h | 6.72 µg/mL | 0.006 µg/mL
2-{2-diethylamino-5-[(3,4-dichlorobenzenesulfonyl)methylamino]pyrimidin-4-ylamino}-3-(4-dimethylcarbamoyloxyphenyl)propionic acid [Example 4] | 0.5965 (μg/mL)h | 0.4 µg/mL | 0.004 µg/mL
2-{2-diethylamino-5-[(3,4-difluorobenzenesulfonyl)ethylamino]pyrimidin-4-ylamino}-3-(4-dimethylcarbamoyloxyphenyl)propionic acid [Example 12] | 0.8447 (μg/mL)h | 0.06 µg/mL | 0.003 µg/mL
2-{2-diethylamino-5-[(3,5-dichlorobenzenesulfonyl)ethylamino]pyrimidin-4-ylamino}-3-(4-dimethylcarbamoyloxyphenyl)propionic acid [Example 20] | 0.0536 (μg/mL)h | 0.07751 µg/mL | 0.005114 µg/mL
2-{2-diethylamino-5-[(3,5-dichlorobenzenesulfonyl)methylamino]pyrimidin-4-ylamino}-3-(4-dimethylcarbamoyloxyphenyl)propionic acid [Example 19] | 0.0697 (μg/mL)h | 0.08535 µg/mL | 0.003393 µg/mL
2-{2-diethylamino-5-[(3,5-difluorobenzenesulfonyl)ethylamino]pyrimidin-4-ylamino}-3-(4-dimethylcarbamoyloxyphenyl)propionic acid [Example 16] | 0.1721 (μg/mL)h | 0.06707 µg/mL | 0.001035 µg/mL
2-{2-diethylamino-5-[(3,5-difluorobenzenesulfonyl)methylamino]pyrimidin-4-ylamino}-3-(4-dimethylcarbamoyloxyphenyl)propionic acid [Example 15] | 0.2098 (μg/mL)h | 0.1243 µg/mL | 0.000915 µg/mL
2-{2-diethylamino-5-[(3-fluorobenzenesulfonyl)methylamino]pyrimidin-4-ylamino}-3-(4-dimethylcarbamoyloxyphenyl)propionic acid [Example 7] | 0.717 (μg/mL)h | 0.5869 µg/mL | 0.000821 µg/mL
2-{2-diethylamino-5-[(chlorobenzenesulfonyl)ethylamino]pyrimidin-4-ylamino}-3-(4-dimethylcarbamoyloxyphenyl)propionic acid [Example 13] | 1.5806 (μg/mL)h | 0.075 µg/mL | 0.004 µg/mL
